Experimental data reported in patent US7816343B2, “Wood preservative composition” (HWD Acquisition, Inc., priority 2007, dated 2010).

Key:
[1] = Compatibility Test B: mixtures of single borate esters with Fungicide I; format: physicochemical; settings: for appearance during mixing / separation or precipitation after mixing: borate ester mixed with Fungicide I (TBGB, HGB 10%); for overall stability of mixture with Fungicide I: conclusion from the observations; for collapse of closed container (moisture drawn from air): mixture with Fungicide I in closed container, TBGB a week, THGB 18 days
Text: A mixture of Fungicide I and a 10% tributylene glycol biborate (TBGB) was made by pouring the TBGB into the Fungicide I. The following observations were made while making and after making the mixture.
The TBGB reacted with moisture in the air while pouring and formed a thin white film over the pour stream. […] This behavior was duplicated by opening the container and allowing it to come back to its normal shape and closing the container again. It is noted that TBGB in a fungicide mixture when open to the air will draw moisture from the air and hydrolyze to a form insolubles and result in an increase in the separated phase. The hazing during mixing and phase separation seen during the first test was identical to that observed during this mixing.
The TBGB test was repeated using a mixture of 10% hexylene glycol biborate (HGB). The mixture was made by pouring the HGB into the Fungicide I composition. The following observations were made while making and after making the mixture:
The container was closed. The crystalline material is soluble in water and isopropyl alcohol. A 10% HGB/mineral spirits solution was made to test for moisture adsorption from the air. […] The crystalline material is likely the hydroxy hexylene glycol borate compound formed by hydrolysis of the anhydride bond. The crystal formation in the HGB testing is similar to that observed in the first test in the test mixture storage drum.
The basic observations are that both the TBGB and HGB react with various components of the Fungicide I mixture and react with moisture in the air.
A mixture of tri hexylene glycol biborate (THGB) and Fungicide I was made. It was observed that the solution remains clear with no separation. Next, the mixture was left open to atmosphere for 90 days at 40% to 50% relative humidity conditions. […] A 10% evaporative loss of mineral spirits approximately every 14 days was replaced with new mineral spirits without any negative effects. […] The mixture was placed in a 0° F. freezer overnight. […] The mixture was placed in a 42° F. refrigerator for 63 hours.

[2] = cited from earlier work

Row | Structure (SMILES) | appearance of solution, container closed ([1]; 10% HGB/mineral spirits solution, container closed) | appearance of solution, container open to air ([1]; 10% HGB/mineral spirits solution, opened to air, over night) | appearance during mixing [1] | separation or precipitation after mixing [1] | overall stability of mixture with Fungicide I [1] | collapse of closed container (moisture drawn from air) [1] | redissolution on heating ([1]; after freezer, heated to approximately 20 F with stirring) | appearance after open storage ([1]; mixture with Fungicide I left open to atmosphere 90 days, 40% to 50% relative humidity) | appearance after freezer storage ([1]; mixture with Fungicide I, 0° F. freezer overnight) | appearance after refrigerator storage ([1]; mixture with Fungicide I, 42° F. refrigerator, 63 hours) | maximum boron concentration of saturated aqueous solution [2]
1 | CC1CC(C)(C)OB(OB2OC(C)CC(C)(C)O2)O1 (stereo not drawn) [HGB, hexylene glycol biborate] | remained clear without separation or solid precipitation | white crystal formation | remained clear during mixing | opaque white crystalline material immediately formed on the container surfaces | too reactive to form stable mixtures |  |  |  |  |  | 
2 | CC1CCOB(OCCC(C)OB2OCCC(C)O2)O1 (stereo not drawn) [TBGB, tributylene glycol biborate] |  |  | immediately became hazy | brownish/red colored layer immediately began to form at the bottom of the container | too reactive to form stable mixtures | collapse slightly after a week |  |  |  |  | 
3 | CC1CC(C)(C)OB(OC(C)CC(C)(C)OB2OC(C)CC(C)(C)O2)O1 (stereo not drawn) [THGB, tri hexylene glycol biborate] |  |  | remains clear | no separation | produces stable mixtures | without any collapse | dissolved all of the white solids | remained clear with no separation and no precipitation of solids | white solids were observed at the bottom of the container | remained clear without separation or precipitation | 
4 | OB(O)O [boric acid] |  |  |  |  |  |  |  |  |  |  | no more than one
